Experiments:
Assay type in all cases: in vivo
[1] = system: Ctenocephalides felis; assay: Ctenocephalides felis oral test; conditions: 48 h, 100 ppm in cattle blood, after 2 days, adult unfed cat fleas
Protocol: Ctenocephalides Felis—Oral Test
Solvent: dimethyl sulfoxide
To produce a suitable preparation of active compound, 10 mg of active compound are dissolved in 0.5 ml solvent, and the concentrate is diluted with cattle blood to the desired concentration.
Approximately 20 adult unfed cat fleas (Ctenocephalides felis) are placed in flea chambers. The blood chamber, sealed with parafilm on the bottom, are filled with cattle blood supplied with compound solution and placed on the gauze covered top of the flea chamber, so that the fleas are able to suck the blood. The blood chamber is heated to 37° C. whereas the flea chamber is kept at room temperature.
After 2 days mortality in % is determined. 100% means all the fleas have been killed; 0% means none of the fleas have been killed.

[2] = system: Spodoptera frugiperda; assay: Spodoptera frugiperda spray test; conditions: 168 h, after 7 days, larvae on maize leaf sections
Protocol: Spodoptera frugiperda—Spray Test
(§1) To produce a suitable preparation of active compound, 1 part by weight of active compound is mixed with the stated amount of solvents and is diluted with water, containing an emulsifier concentration of 1000 ppm, to the desired concentration. Further test concentrations are prepared by dilution with emulsifier containing water.
Maize (Zea mays) leaf sections are sprayed with a preparation of the active ingredient of the desired concentration. Once dry, the leaf sections are infested with fall armyworm larvae (Spodoptera frugiperda).
After 7 days mortality in % is determined. 100% means all caterpillars have been killed and 0% means none of the caterpillars have been killed.

[3] = system: Diabrotica balteata; assay: Diabrotica balteata spray test; conditions: Diabrotica balteata, in Triticum aestivum, 168 h, after 7 days, larvae on wheat seeds, read-out: efficacy (seedlings grown up); for pest or weed control at 80 µg/disc, 250 g/ha: 80 μg/well (=250 g/ha); for pest or weed control at 160 µg/disc, 500 g/ha: 160 μg/well (=500 g/ha)
Protocol: Diabrotica balteata—Spray Test [table] To produce a suitable preparation of active compound, 1 part by weight of active compound is mixed with the stated amount of solvent, and the concentrate is diluted with water, containing an emulsifier concentration of 1000 ppm, to the desired concentration. Further test concentrations are prepared by dilution with emulsifier containing water. Soaked wheat seeds (Triticum aestivum) are placed in a multiple well plate filled with agar and some water and are incubated for 1 day to germinate (5 seeds per well). The germinated wheat seeds are sprayed with a test solution containing the desired concentration of the active ingredient. Afterwards each unit is infected with 10-20 larvae of the banded cucumber beetle (Diabrotica balteata). After 7 days efficacy in % is determined. 100% means all the seedlings have grown up like in the untreated, uninfected control; 0% means none of the seedlings have grown.

[4] = system: Boophilus microplus; assay: Boophilus microplus injection test; conditions: Rhipicephalus microplus, 168 h; 20 μg/animal injected into the abdomen; adult engorged female ticks; egg deposition after 7 days; read-out: efficacy (infertile eggs)
Protocol: Boophilus Microplus—Injection Test Solvent: dimethyl sulfoxide To produce a suitable preparation of active compound, 10 mg of active compound are dissolved in 0.5 ml solvent, and the concentrate is diluted with solvent to the desired concentration. Five adult engorged female ticks (Boophilus microplus) are injected with 1 μl compound solution into the abdomen. The ticks are transferred into replica plates and incubated in a climate chamber. After 7 days egg deposition of fertile eggs is monitored. Eggs where fertility is not visible are stored in a climate chamber till hatching after about 42 days. An efficacy of 100% means all eggs are infertile; 0% means all eggs are fertile.

[5] = system: Myzus persicae; assay: Myzus persicae oral test; conditions: 120 h, 4 ppm, after 5 days
Protocol: Solvent: 100 parts by weight acetone
To produce a suitable preparation of active compound, 1 part by weight of active compound is mixed with the stated amount of solvent, and the concentrate is diluted with water to the desired concentration.
50 μl compound solution is filled in microtiter plates and 150 μl IPL41 insect medium (33%+15% sugar) is added to obtain a total volume of 200 μl per well. Afterwards the plates are sealed with parafilm through which a mixed population of the green peach aphid (Myzus persicae) can suck on the compound preparation.
(§2) After 5 days mortality in % is determined. 100% means all aphids have been killed and 0% means none of the aphids have been killed.

[6] = system: Myzus persicae; assay: Myzus persicae spray test; conditions: foliar, 120 h, after 5 days, Chinese cabbage leaf disks
Protocol: Myzus persicae—Spray Test
as §1
Chinese cabbage (Brassica pekinensis) leaf disks infected with all instars of the green peach aphid (Myzus persicae), are sprayed with a preparation of the active ingredient of the desired concentration.
as §2

[7] = system: Nezara viridula; assay: Nezara viridula spray test; conditions: 96 h, after 4 days, larvae on barley plants
Protocol: Nezara viridula—Spray Test
as §1, with “solvent,” for “solvents”, “and the concentrate” for “and”
Barley plants (Hordeum vulgare) infested with larvae of the southern green stink bug (Nezara viridula) are sprayed with a test solution containing the desired concentration of the active ingredient.
After 4 days mortality in % is determined. 100% means all the stink bugs have been killed: 0% means none of the stink bugs have been killed.

[8] = system: Aedes aegypti strain MONHEIM; assay: Aedes aegypti test (AEDSAE surface treatment & contact assay); conditions: 24 hours after contact, read-out: efficacy (mortality)
Protocol: Aedes Aegypti Test (AEDSAE Surface Treatment & Contact Assay)
Solvent: Aceton+2000 ppm rapeseed oil methyl ester (RME)
In order to produce a sufficient, active ingredient containing solution it is necessary to solve the test compound in the solvent-mix (acetone at 2 mg/ml/RME 2000 ppm). This solution is pipetted onto a glazed tile and after evaporation of the acetone, adult mosquitoes of the species Aedes aegypti strain MONHEIM are placed onto the dried surface. The exposure time is 30 minutes.
Mortality in percent (%) is determined 24 hours after contact of the insects to the treated surface. 100% mortality means that all tested insects are dead, whereas 0% means that no insect died.

Structure (SMILES): C[C@H](NC(=O)c1cc(Cl)cc(C(F)(F)F)c1)c1ncnn1-c1ccc(S(=O)(=O)C(F)(F)F)cn1 [Example I-027, 3-chloro-5-(trifluoromethyl)-N-[(1S)-1-(1-{5-[(trifluoromethyl)sulfonyl]pyridin-2-yl}-1H-1,2,4-triazol-5-yl)ethyl]benzamide]
- mortality at 100 ppm [1]: 100%
- mortality at 100 g/ha [2]: 100%
- mortality at 500 g/ha [2]: 100%
- pest or weed control at 80 µg/disc, 250 g/ha [3]: 100%
- pest or weed control at 160 µg/disc, 500 g/ha [3]: 100%
- pest or weed control at 0.02 mg [4]: 100%

Structure (SMILES): C[C@H](NC(=O)c1cc(Cl)cc(C(F)(F)F)c1)c1ncnn1-c1ccc(NC(=O)c2ccc(F)cc2)cn1 [Example I-036]
- mortality at 100 ppm [1]: 100%
- mortality at 100 g/ha [2]: 100%
- mortality at 500 g/ha [2]: 100%
- pest or weed control at 80 µg/disc, 250 g/ha [3]: 100%
- pest or weed control at 160 µg/disc, 500 g/ha [3]: 100%
- mortality at 4 ppm [5]: 100%
- pest or weed control at 0.02 mg [4]: 100%

Structure (SMILES): C[C@H](NC(=O)c1cc(Cl)cc(C(F)(F)F)c1)c1ncnn1-c1ccc(NC(=O)CC#N)cn1 [Example I-073]
- mortality at 500 g/ha [6]: 90%
- mortality at 100 ppm [1]: 100%
- pest or weed control at 80 µg/disc, 250 g/ha [3]: 100%
- pest or weed control at 160 µg/disc, 500 g/ha [3]: 100%
- pest or weed control at 0.02 mg [4]: 100%

Structure (SMILES): C[C@H](NC(=O)c1cc(Cl)cc(C(F)(F)F)c1)c1ncnn1-c1ccc(S(C)(=O)=O)cn1 [Example I-062]
- mortality at 500 g/ha [7]: 100%
- mortality at 100 ppm [1]: 100%
- mortality at 100 g/ha [2]: 100%
- mortality at 500 g/ha [2]: 100%
- pest or weed control at 80 µg/disc, 250 g/ha [3]: 100%
- pest or weed control at 160 µg/disc, 500 g/ha [3]: 100%
- pest or weed control at 0.02 mg [4]: 100%

Structure (SMILES): C[C@H](NC(=O)c1cc(Cl)cc(C(F)(F)F)c1)c1ncnn1-c1ccc(-n2ccc(C(F)(F)F)n2)cn1 [Example I-045, 3-chloro-5-(trifluoromethyl)-N-[(1S)-1-(1-{5-[3-(trifluoromethyl)-1H-pyrazol-1-yl]pyridin-2-yl}-1H-1,2,4-triazol-5-yl)ethyl]benzamide]
- mortality at 100 ppm [1]: 95%
- mortality at 100 g/ha [2]: 100%
- mortality at 500 g/ha [2]: 100%
- pest or weed control at 80 µg/disc, 250 g/ha [3]: 100%
- pest or weed control at 160 µg/disc, 500 g/ha [3]: 80%
- pest or weed control at 0.02 mg [4]: 100%

Structure (SMILES): C[C@H](NC(=O)c1cncc(I)c1)c1ncnn1-c1ccc(C#N)cn1 [Example I-063]
- mortality at 4 mg/m2 ([8]; surface concentration 4 mg/m^2, exposure 30 minutes): 90 to 100%
- mortality at 20 mg/m2 ([8]; surface concentration 20 mg/m^2, exposure 30 minutes): 90 to 100%
- mortality at 100 ppm [1]: 100%
- mortality at 500 g/ha [2]: 83%
- pest or weed control at 80 µg/disc, 250 g/ha [3]: 100%
- pest or weed control at 160 µg/disc, 500 g/ha [3]: 100%
- mortality at 4 ppm [5]: 100%
- pest or weed control at 0.02 mg [4]: 100%

Structure (SMILES): C[C@H](NC(=O)c1cc(Cl)cc(C(F)(F)F)c1)c1ncnn1-c1ccc(NC(=O)C(F)(F)F)cn1 [Example I-072]
- mortality at 100 g/ha [2]: 83%
- mortality at 500 g/ha [2]: 100%
- pest or weed control at 80 µg/disc, 250 g/ha [3]: 100%
- pest or weed control at 160 µg/disc, 500 g/ha [3]: 100%
- mortality at 4 ppm [5]: 90%

Structure (SMILES): C[C@H](NC(=O)c1cc(Cl)cc(C(F)(F)F)c1)c1ncnn1-c1ccc(C(N)=O)cn1 [Example I-100]
- mortality at 500 g/ha [7]: 100%
- mortality at 100 ppm [1]: 100%
- mortality at 100 g/ha [2]: 100%
- mortality at 500 g/ha [2]: 100%
- pest or weed control at 80 µg/disc, 250 g/ha [3]: 100%
- pest or weed control at 160 µg/disc, 500 g/ha [3]: 100%
- mortality at 4 ppm [5]: 100%

Structure (SMILES): CON=Cc1ccc(-n2ncnc2[C@H](C)NC(=O)c2cc(Cl)cc(C(F)(F)F)c2)nc1 [Example I-065, 3-chloro-N-[(1S)-1-(1-{5-[(methoxyimino)methyl]pyridin-2-yl}-1H-1,2,4-triazol-5-yl)ethyl]-5-(trifluoromethyl)benzamide]
- mortality at 500 g/ha [6]: 90%
- mortality at 500 g/ha [7]: 90%
- mortality at 100 g/ha [2]: 100%
- mortality at 500 g/ha [2]: 100%
- pest or weed control at 80 µg/disc, 250 g/ha [3]: 100%
- pest or weed control at 160 µg/disc, 500 g/ha [3]: 100%

Structure (SMILES): C[C@H](NC(=O)c1cc(Cl)cc(C(F)(F)F)c1)c1ncnn1-c1ccc(OC(F)(F)F)cn1 [Example I-016]
- mortality at 100 ppm [1]: 100%
- mortality at 100 g/ha [2]: 100%
- mortality at 500 g/ha [2]: 100%
- pest or weed control at 80 µg/disc, 250 g/ha [3]: 100%
- pest or weed control at 160 µg/disc, 500 g/ha [3]: 100%
- pest or weed control at 0.02 mg [4]: 100%

Structure (SMILES): Cc1cc(C(=O)N[C@@H](C)c2ncnn2-c2ccc(C#N)cn2)cc(C(F)(F)F)c1 [Example I-040]
- mortality at 100 ppm [1]: 100%
- mortality at 100 g/ha [2]: 100%
- mortality at 500 g/ha [2]: 100%
- pest or weed control at 80 µg/disc, 250 g/ha [3]: 100%
- pest or weed control at 160 µg/disc, 500 g/ha [3]: 100%
- mortality at 4 ppm [5]: 100%
- pest or weed control at 0.02 mg [4]: 100%

Structure (SMILES): C[C@H](NC(=O)c1cc(C(F)(F)F)cc(C(F)(F)F)c1)c1ncnn1-c1nccs1 [Example I-103]
- mortality at 100 g/ha [7]: 100%
- mortality at 500 g/ha [7]: 100%
- mortality at 100 g/ha [2]: 100%
- mortality at 500 g/ha [2]: 100%
- pest or weed control at 80 µg/disc, 250 g/ha [3]: 100%
- pest or weed control at 160 µg/disc, 500 g/ha [3]: 100%
- mortality at 4 ppm [5]: 100%

Structure (SMILES): C[C@H](NC(=O)c1cc(Cl)cc(OC(F)(F)F)c1)c1ncnn1-c1ccc(N)cn1 [Example I-101]
- mortality at 500 g/ha [7]: 100%
- mortality at 500 g/ha [2]: 100%
- pest or weed control at 80 µg/disc, 250 g/ha [3]: 100%
- pest or weed control at 160 µg/disc, 500 g/ha [3]: 100%
- mortality at 4 ppm [5]: 100%

Structure (SMILES): C[C@H](NC(=O)c1cc(Cl)cc(C(F)(F)F)c1)c1ncnn1-c1ccc(C(=O)N(C)C2CC2)cn1 [Example I-110, 6-(5-{(1S)-1-[3-chloro-5-(trifluoromethyl)benzamido]ethyl}-1H-1,2,4-triazol-1-yl)-N-cyclopropyl-N-methylnicotinamide]
- mortality at 100 g/ha ([6]; 100 g/ha): 90%
- mortality at 500 g/ha [6]: 100%
- mortality at 500 g/ha [7]: 90%
- mortality at 100 g/ha [2]: 100%
- mortality at 500 g/ha [2]: 100%
- pest or weed control at 160 µg/disc, 500 g/ha [3]: 100%

Structure (SMILES): C[C@H](NC(=O)c1cc(Cl)cc(C(F)(F)F)c1)c1ncnn1-c1ccc(C(=O)NC2(C#N)CC2)cn1 [Example I-112]
- mortality at 100 g/ha [7]: 100%
- mortality at 500 g/ha [7]: 100%
- mortality at 500 g/ha [2]: 83%
- pest or weed control at 160 µg/disc, 500 g/ha [3]: 100%
- mortality at 4 ppm [5]: 90%

Structure (SMILES): C[C@H](NC(=O)c1cncc(Br)c1)c1ncnn1-c1ccc(C#N)cn1 [Example I-053]
- mortality at 100 ppm [1]: 100%
- mortality at 500 g/ha [2]: 100%
- pest or weed control at 80 µg/disc, 250 g/ha [3]: 100%
- pest or weed control at 160 µg/disc, 500 g/ha [3]: 100%
- pest or weed control at 0.02 mg [4]: 100%
